Values quoted from earlier work as cited in patent publication US10610489B2, “Pharmaceutical composition, pharmaceutical dosage form, process for their preparation, methods for treating and uses thereof” (Boehringer Ingelheim International GmbH, priority 2009, dated 2020).

Tested on: HbA1c
Conditions: metformin on its own, in the diabetic

CN(C)C(=N)N=C(N)N [metformin, dimethyldiguanide]
average improvement in the HbA1c value: 1.0-1.5%
